Like-named read-outs stand apart in the source and are kept apart here.
How the values were obtained:
[1] = test system: MCF-7 breast cancer cell line clusters; test: Microwell-based CTC cluster assay, doxorubicin screening on MCF-7 clusters (live/dead staining); format: cell-based; settings: Homo sapiens, MCF7, normoxia, 72 hrs exposure from Day 3, viability by Calcein-AM/EtBr
Description: Cell Culture of MCF-7 Cancer Cell Line MCF-7 (HTB-22TM, ATCC, USA), a human breast adenocarcinoma cell line, was first used to mimic CTC cluster formation. Cell lines were maintained in supplemented high-glucose Dulbecco's modified Eagle's medium (DMEM) (Invitrogen, USA) with 10% fetal bovine serum (FBS) (Invitrogen, USA) together with 1% penicillin-streptomycin (Invitrogen, USA). Cultures were kept at 37° C. in a humidified atmosphere containing 5% (v/v) CO2 till 80% confluence. Cells were cultured in sterile 25 cm^2 flasks (BD Bioscience, USA) and sub-cultivated two times a week with media replaced every 48 h. Sub-confluent monolayers were dissociated using 0.01% otrypsin and 5.3 mM EDTA solution (Lonza, Switzerland).
The closed system was then incubated at 37° C., 5% CO2 till drug treatment at Day 3 or Day 11 for MCF-7 cultures and clinical sample cultures respectively.
A stock solution was prepared in 100% DMSO and subsequently was diluted in supplemented DMEM (1 μl to 1 ml of media), resulting in ˜0.1% of DMSO concentration (1 μM drug concentration), which has negligible effects on cells.
To establish the IC50 values, z-stacks images of 25 microwells from each channel were obtained with a confocal microscope.

MCF-7 monolayer cultures = settings: monolayer cultures with lower cell counts, <10k cells per ml; read-out: IC50 value (previous studies); cited from earlier work
[2] = test system: clinical human primary cancer cells cultured from blood samples (CD45- cells); test: Microwell-based CTC cluster assay, doxorubicin screening on clusters cultured from breast cancer patient blood samples; settings: for IC50 / viability at 1 µM: Homo sapiens; for IC50: 72 hrs exposure; for viability at 1 µM: 72 hrs

For `COc1cccc2c1C(=O)c1c(O)c3c(c(O)c1C2=O)C[C@@](O)(C(=O)CO)C[C@@H]3O[C@H]1C[C@H](N)[C@H](O)[C@H](C)O1` [doxorubicin, Doxorubicin], the IC50 [1] is given as 780 ± 20 nM, the IC50 (MCF-7 monolayer cultures) is given as ~500 nM and the IC50 ([2]; 72 h, read-out: IC50 value, sample CES021, Post treatment) is given as > 1000 nM. For the same molecule, the IC50 ([2]; 72 h, read-out: IC50 value, sample CES053, Post treatment) was 340 nM, the IC50 ([2]; 72 h, read-out: IC50 value, sample P2B28, Post treatment) was > 1000 nM and the IC50 ([2]; 72 h, read-out: IC50 value, sample P2B29, Post treatment) was 860 nM. For the same molecule, the viability at 1 µM ([2]; 72 h, read-out: Percentage of viable CD45-cells, CES21 Post-treatment, 1.6% of drug (1 μM)) was 96.4%, the viability at 1 µM ([2]; 72 h, read-out: Percentage of viable CD45-cells, CES21 Post-treatment, 10.9% of drug (1 μM)) was 94.9% and the viability at 1 µM ([2]; 72 h, read-out: Percentage of viable CD45-cells, CES21 Post-treatment, 34.4% of drug (1 μM)) was 92%. The viability at 1 µM ([2]; 72 h, read-out: Percentage of viable CD45-cells, CES21 Post-treatment, 65.6% of drug (1 μM)) was 78.6%, the viability at 1 µM ([2]; 72 h, read-out: Percentage of viable CD45-cells, CES21 Post-treatment, 89.1% of drug (1 μM)) was 71.1% and the viability at 1 µM ([2]; 72 h, read-out: Percentage of viable CD45-cells, CES21 Post-treatment, 98.4% of drug (1 μM)) was 66.9%. It also gave a viability at 1 µM ([2]; 72 h, read-out: Percentage of viable CD45-cells, CES21 Post-treatment, 100.0% of drug (1 μM)) of 67.9%, a viability at 1 µM ([2]; 72 h, read-out: Percentage of viable CD45-cells, CES053 Post-treatment, 1.6% of drug (1 μM)) of 51.7% and a viability at 1 µM ([2]; 72 h, read-out: Percentage of viable CD45-cells, CES053 Post-treatment, 10.9% of drug (1 μM)) of 51.4%. For the same molecule, the viability at 1 µM ([2]; 72 h, read-out: Percentage of viable CD45-cells, CES053 Post-treatment, 34.4% of drug (1 μM)) was 48%, the viability at 1 µM ([2]; 72 h, read-out: Percentage of viable CD45-cells, CES053 Post-treatment, 65.6% of drug (1 μM)) was 52.2% and the viability at 1 µM ([2]; 72 h, read-out: Percentage of viable CD45-cells, CES053 Post-treatment, 89.1% of drug (1 μM)) was 42.8%. It also gave a viability at 1 µM ([2]; 72 h, read-out: Percentage of viable CD45-cells, CES053 Post-treatment, 98.4% of drug (1 μM)) of 41%, a viability at 1 µM ([2]; 72 h, read-out: Percentage of viable CD45-cells, CES053 Post-treatment, 100.0% of drug (1 μM)) of 39.8% and a viability at 1 µM ([2]; 72 h, read-out: Percentage of viable CD45-cells, P2B28 Post-treatment, 1.6% of drug (1 μM)) of 39.3%. It also gave a viability at 1 µM ([2]; 72 h, read-out: Percentage of viable CD45-cells, P2B28 Post-treatment, 10.9% of drug (1 μM)) of 32.6%, a viability at 1 µM ([2]; 72 h, read-out: Percentage of viable CD45-cells, P2B28 Post-treatment, 34.4% of drug (1 μM)) of 39.2% and a viability at 1 µM ([2]; 72 h, read-out: Percentage of viable CD45-cells, P2B28 Post-treatment, 65.6% of drug (1 μM)) of 28.8%. The viability at 1 µM ([2]; 72 h, read-out: Percentage of viable CD45-cells, P2B28 Post-treatment, 89.1% of drug (1 μM)) was 27.6%, the viability at 1 µM ([2]; 72 h, read-out: Percentage of viable CD45-cells, P2B28 Post-treatment, 98.4% of drug (1 μM)) was 24.4% and the viability at 1 µM ([2]; 72 h, read-out: Percentage of viable CD45-cells, P2B28 Post-treatment, 100.0% of drug (1 μM)) was 0%. It also gave a viability at 1 µM ([2]; 72 h, read-out: Percentage of viable CD45-cells, P2B29 Post-treatment, 1.6% of drug (1 μM)) of 73.6%, a viability at 1 µM ([2]; 72 h, read-out: Percentage of viable CD45-cells, P2B29 Post-treatment, 10.9% of drug (1 μM)) of 56.2% and a viability at 1 µM ([2]; 72 h, read-out: Percentage of viable CD45-cells, P2B29 Post-treatment, 34.4% of drug (1 μM)) of 18.5%. It also gave a viability at 1 µM ([2]; 72 h, read-out: Percentage of viable CD45-cells, P2B29 Post-treatment, 65.6% of drug (1 μM)) of 7.7%, a viability at 1 µM ([2]; 72 h, read-out: Percentage of viable CD45-cells, P2B29 Post-treatment, 89.1% of drug (1 μM)) of 4.1% and a viability at 1 µM ([2]; 72 h, read-out: Percentage of viable CD45-cells, P2B29 Post-treatment, 98.4% of drug (1 μM)) of 1.1%. It also gave a viability at 1 µM ([2]; 72 h, read-out: Percentage of viable CD45-cells, P2B29 Post-treatment, 100.0% of drug (1 μM)) of 0.4%, an IC50 ([2]; read-out: IC50 value, sample CTB039, Pre-treatment) of 850 nM and an IC50 ([2]; read-out: IC50 value, sample P2B29, Pre-treatment) of 940 ± 40 nM. For the same molecule, the viability at 1 µM ([2]; read-out: Percentage of viable CD45-cells, CTB039 Pre-treatment, 1.6% of drug (1 μM)) was 85.5%, the viability at 1 µM ([2]; read-out: Percentage of viable CD45-cells, CTB039 Pre-treatment, 10.9% of drug (1 μM)) was 81.6% and the viability at 1 µM ([2]; read-out: Percentage of viable CD45-cells, CTB039 Pre-treatment, 34.4% of drug (1 μM)) was 69.7%. The viability at 1 µM ([2]; read-out: Percentage of viable CD45-cells, CTB039 Pre-treatment, 65.6% of drug (1 μM)) was 58.3%, the viability at 1 µM ([2]; read-out: Percentage of viable CD45-cells, CTB039 Pre-treatment, 89.1% of drug (1 μM)) was 48.3% and the viability at 1 µM ([2]; read-out: Percentage of viable CD45-cells, CTB039 Pre-treatment, 98.4% of drug (1 μM)) was 44.2%. For the same molecule, the viability at 1 µM ([2]; read-out: Percentage of viable CD45-cells, CTB039 Pre-treatment, 100.0% of drug (1 μM)) was 40.8%, the viability at 1 µM ([2]; read-out: Percentage of viable CD45-cells, P2B29 Pre-treatment, 1.6% of drug (1 μM)) was 96.6% and the viability at 1 µM ([2]; read-out: Percentage of viable CD45-cells, P2B29 Pre-treatment, 10.9% of drug (1 μM)) was 86.4%. It also gave a viability at 1 µM ([2]; read-out: Percentage of viable CD45-cells, P2B29 Pre-treatment, 34.4% of drug (1 μM)) of 26.2%, a viability at 1 µM ([2]; read-out: Percentage of viable CD45-cells, P2B29 Pre-treatment, 65.6% of drug (1 μM)) of 3.9% and a viability at 1 µM ([2]; read-out: Percentage of viable CD45-cells, P2B29 Pre-treatment, 89.1% of drug (1 μM)) of 2.6%. For the same molecule, the viability at 1 µM ([2]; read-out: Percentage of viable CD45-cells, P2B29 Pre-treatment, 98.4% of drug (1 μM)) was 0.7%, the viability at 1 µM ([2]; read-out: Percentage of viable CD45-cells, P2B29 Pre-treatment, 100.0% of drug (1 μM)) was 0.4% and the “average correlation coefficient, percentage of microwells with cluster vs concentration of doxorubicin” value ([2]; clinical sample cultures, FIG. 15A) was −0.71. For the same molecule, the “proportion of microwells with presence of macrophage-like cells vs drug concentration” value ([2]; clinical sample cultures, FIG. 15B) was “did not seem to correlate with drug concentration”.
